# Test results reported in PMC7269032, “Chiral 4-O-acylterpineol as transdermal permeation enhancers: insights of the enhancement mechanisms of a transdermal enantioselective delivery system for flurbiprofen” (Drug Delivery, 2020).
# Assays:
# [1] = In vitro permeation experiment of FP drug-in-adhesive patches in two-chamber diffusion cells; format: in vitro ADME, rabbit; conditions: for ER (Q24h with enhancer/Q24h without enhancer) for R-FP / Tlag of R-FP / Js of R-FP: permeant R-FP; for ER (Q24h with enhancer/Q24h without enhancer) for R-FP / Tlag of R-FP / Js of R-FP / ER (Q24h with enhancer/Q24h without enhancer) for S-FP / Tlag of S-FP / Js of S-FP / ER (Q24h with enhancer/Q24h without enhancer) for SR-FP / Tlag of SR-FP / Js of SR-FP: patch 5% drug (w/w); for ER (Q24h with enhancer/Q24h without enhancer) for R-FP / ER (Q24h with enhancer/Q24h without enhancer) for S-FP / ER (Q24h with enhancer/Q24h without enhancer) for SR-FP: enhancer equimolar to 5% 4-TER; for Tlag of R-FP / Js of R-FP / Tlag of S-FP / Js of S-FP / Tlag of SR-FP / Js of SR-FP: enhancer equimolar to 5% 4-TER (control: no enhancer); for Js of R-FP / Js of S-FP / Js of SR-FP: mean ± SD, n = 4; for ER (Q24h with enhancer/Q24h without enhancer) for S-FP / Tlag of S-FP / Js of S-FP: permeant S-FP; for ER (Q24h with enhancer/Q24h without enhancer) for SR-FP / Tlag of SR-FP / Js of SR-FP: permeant SR-FP
# Description: Male, Japanese big-eared rabbits weighting 2.5–3.0 kg were purchased from the animal experimental center of North China University of Science and Technology. The experimental process was in accordance with the ‘Ethical Guide for Laboratory Animal Investigation’ and was approved by the Animal Experimental Center Committee of North China University of Science and Technology. All efforts were made to minimize animal suffering and to limit the number of animals used.
# The hair of back skin was removed by clipper and electrical shaver carefully when the rabbits were anesthetized with ether. Full thickness of back skin was excised after the rabbit was sacrificed by injecting air into the ear veins, and the subcutaneous fat tissue was carefully removed using the surgical scissor and scalpel. The integrity of the skin was confirmed by microscopic observation method. The treated rabbit skin was cut into a size of 1.5 cm × 1.5 cm and stored at –80 °C until use. Before use, it needed to be immersed in physiological saline for 20 min to thaw.
# Drug-in-adhesive patch (drug loading of 5% by adhesive) was prepared by using solvent evaporation method. An appropriate amount of FP was dissolved in a suitable amount of ethyl acetate, which was later added to the adhesive and mixed thoroughly with a mechanical stirrer. The resulting solution was coated onto release liner (Scotch Pak® 9744, 3M, USA) by using lab coating unit (6025, BLD Instruments Co. Ltd., Guangdong, China). The coated laminate was dried at 50 °C for 15 min. After the solvent had been removed, it was covered with backing laminate (Scotch Pak® 9732, 3M).
# Modified two-chamber diffusion cells with an effective diffusion area of 0.95 cm^2 were employed in the in vitro permeation experiment. The cells were kept at 32 °C by the circulated water bath and stirred with magnetic bars at 400 rpm. The dermis side of the skin was attached to one-half of the side-by-side diffusion cells, the FP patch was pressed on the skin with the adhesive side facing the SC, and pH 7.4 PBS was used as the receptor medium. At predetermined time points (2, 4, 6, 8, 10, 12 and 24 h), the receptor solution of 2.0 mL was withdrawn and equal volume PBS was added to maintain a constant volume of receptor solution.
# The cumulative amount of each drug permeating per unit area (Q) versus time was plotted. Q24h=(3.5Ci+2.0∑i=1n−1Ci−1)/A
# Q was the cumulative skin permeation amount. Ci was the concentration in the receiver compartment at time i, A was the effective diffusion area of diffusion.
# The steady-state flux (Js, µg/cm^2/h) was calculated from the slope of linear region of the plot. The lag-time was determined by extrapolating the linear portion of the curve to the abscissa. Js=dQr/Adt
# Enhancement ratio (ER) was used to evaluate the activity of the enhancers, which is the ratio of Q24h with enhancer to Q24h without enhancer. ER=Q24h(with enhancer)/Q24h(without enhancer)
# [2] = In vivo pharmacokinetic study, transdermal patch administration; set-up: species or system rabbit; conditions: rabbits, SR-FP patch with 5% enhancer or without (control); for V of R-FP: analyte R-; for V of S-FP: analyte S-
# Method: Thirty-six male rabbits weighing 2.5 kg were divided into six groups, and the back skin was intact without erythema. For patch administration studies, patches without or with enhancers (120 mg/kg) were stuck to the shaved area of the rabbits. They were administered as follows: (1) control group: only the SR-FP; (2) enhancer group A: prepared SR-FP patch with 5% d-4-TER; (3) enhancer group B: prepared SR-FP patch with 5% d-4-T-dC18; (4) enhancer group C: prepared SR-FP patch with 5% l-4-T-dC18; (5) enhancer group D: prepared S-FP patch with 5% d-4-T-dC18; (6) enhancer group E: prepared R-FP patch with 5% d-4-T-dC18. In order to prevent the patches fallen off, gauze and medical tape were used to fix the patches. The blood from ear vein of rabbit was collected 0.5 mL at 0.5, 1, 2, 4, 6, 8, 12, 16, 20, 24, 26, 28, 30, 32, 36 and 48 h, and the patch was removed after 24 h, then the residual drug was wiped with physiological saline. The sample was processed by the same method as IV. All animal studies were carried out in accordance with the NIH Guidelines for the Care and Use of Laboratory Animals and were also approved by the Life Science Research Center of North China University of Science and Technology.
# After being thawed and equilibrated to room temperature, an aliquot (100 μL) of plasma sample was spiked with […] (10 μL) of 40.0 μg/mL and 400 μL methanol. The samples were vortexed for 5 min and followed by centrifugation at 16,000 rpm for 10 min at 25 °C. After centrifugation, the supernatant was transferred to a clean tube and evaporated to dryness at 40 °C under a gentle stream of nitrogen. The dried samples were reconstituted with 100 μL mobile phase, vortexed and centrifuged before analysis.
# Pharmacokinetic parameters were calculated using WinNonlin® software (Pharsight Corporation, San Diego, CA, USA) based on noncompartmental model, including the maximal plasma drug concentration (Cmax), the time to reach Cmax (Tmax) which were obtained from the observed data, the area under the time–concentration curve from time 0 to time t (AUC0–t) of distribution which was calculated using the linear trapezoidal rule, the mean residence time (MRT), the plasma clearance (Cl) and the apparent volume(V). Enhancement factor (Ef) was calculated from the following equation: Ef=AUC0−t(with enhancer)/AUC0−t(without enhancer)
# The concentrations of drugs in the receptor medium or rabbit plasma were determined using a validated HPLC method. The HPLC system was equipped with a Shimadzu HPLC apparatus, including an LC-20AT pump, a SIL20A syringe, an SPD-20A detector, and a CTO-20A column oven. The propylparaben was used as an internal standard, and the flow rate of chromatographic analysis was set 1.0 mL/min. For in vitro analysis of SR-FP, thermo (USA) C18 column (150 mm × 4.6 mm, 5 μm particle) maintained at 40 °C was used to elute SR-FP, the mobile phase was used methanol and 1% aqueous glacial acetic acid (60:40, v/v) and the wavelength was set at 247 nm. The HPLC conditions of S-FP and R-FP were as follows: The column was CHIRALPAK®IA (4.6 mm × 250 mml, 5 μm particle diameter) of DAOCEL (Shanghai, China). The mobile phase consisted of acetonitrile and trifluoroacetic acid (0.05%, 50:50, v/v), the wavelength was set at 254 nm. For in vivo analysis of S-FP and R-FP, the mobile phase consisted of acetonitrile and trifluoroacetic acid (0.05%, 35:65, v/v), and other conditions were the same to in vitro analysis.
# Absolute bioavailability (F) was calculated by the following equation: F=AUCpatch·Dosei.v./AUCi.v.·Dosepatch
SMILES,ER (Q24h with enhancer/Q24h without enhancer) for R-FP [1],Tlag of R-FP [1] [h],Js of R-FP [1] [μg/cm^2/h],ER (Q24h with enhancer/Q24h without enhancer) for S-FP [1],Tlag of S-FP [1] [h],Js of S-FP [1] [μg/cm^2/h],ER (Q24h with enhancer/Q24h without enhancer) for SR-FP [1],Tlag of SR-FP [1] [h],Js of SR-FP [1] [μg/cm^2/h],cumulative transport of SR-FP at 24 h ([1]; 3% enhancer level (w/w)) [μg/cm^2],cumulative transport of SR-FP at 24 h ([1]; 5% enhancer level (w/w)) [μg/cm^2],V of R-FP [2] [L],V of S-FP [2] [L],Q24h of SR-FP ([1]; enhancer at same molar concentration as 5% 4-TER) [μg/cm^2]
"CCCCCCC(=O)OC1(C(C)C)CC=C(C)CC1 (stereo not drawn) [d-4-T-C7, d-4-methyl-1-(1-methylethyl)-3-cyclohexen-1-yl heptanoate]",1.96,2.40,4.40 ± 1.42,1.69,2.91,4.39 ± 0.49,2.14,3.74,14.46 ± 1.52,–,–,–,–,–
"CCCCCCCCCCCCCC(=O)OC1(C(C)C)CC=C(C)CC1 (stereo not drawn) [l-4-T-C14, l-4-methyl-1-(1-methylethyl)-3-cyclohexen-1-yl tetradecanoate]",2.92,3.51,7.62 ± 1.49,2.73,3.37,6.80 ± 0.50,1.92,2.45,11.83 ± 6.27,–,–,–,–,–
"CCCCCCCCCCCCCC(=O)OC1(C(C)C)CC=C(C)CC1 (stereo not drawn) [d-4-T-C14, d-4-methyl-1-(1-methylethyl)-3-cyclohexen-1-yl tetradecanoate]",3.19,3.98,8.16 ± 0.84,3.53,2.04,7.75 ± 1.68,2.85,3.58,18.79 ± 3.81,–,–,–,–,–
"CC1=CC[C@@](O)(C(C)C)CC1 [l-4-TER, l-4-terpineol, reference compound]",2.64,3.82,6.99 ± 1.12,2.25,4.07,6.02 ± 0.99,1.81,3.13,11.43 ± 2.06,145.16 ± 13.64,222.09 ± 19.19,–,–,–
"CCCCCCCCC=CCCCCCCCC(=O)OC1(C(C)C)CC=C(C)CC1 (stereo not drawn) [l-4-T-dC18, l-4-methyl-1-(1-methylethyl)-3-cyclohexen-1-yl octadec-9-enoate]",4.6,3.68,12.04 ± 2.51,4.98,3.89,12.98 ± 3.51,4.45,3.61,20.53 ± 3.11,–,–,65.31 ± 28.90,68.51 ± 17.97,547.20 ± 35.94
"CCCCCCC(=O)OC1(C(C)C)CC=C(C)CC1 (stereo not drawn) [l-4-T-C7, l-4-methyl-1-(1-methylethyl)-3-cyclohexen-1-yl heptanoate]",1.38,2.11,3.19 ± 0.47,1.10,4.18,3.00 ± 0.69,1.35,2.96,6.58 ± 1.41,–,–,–,–,–
"CCCCCCCCC=CCCCCCCCC(=O)OC1(C(C)C)CC=C(C)CC1 (stereo not drawn) [d-4-T-dC18, d-4-methyl-1-(1-methylethyl)-3-cyclohexen-1-yl octadec-9-enoate]",4.43,3.95,11.81 ± 1.23,4.13,4.08,10.99 ± 2.17,2.77,1.85,17.57 ± 4.13,–,–,139.60 ± 34.29,92.94 ± 28.69,–
